Experimental data: patent US8735140B2, “Preservation and composition of bioprocess algae for production of lipids, seedstock, and feed” (Kuehnle AgroSystems, Inc., priority 2008, dated 2014)

Assays:
Test in all cases: Trehalose preservation, pretreatment with 0.5M sorbitol and embedding in alginate mat
Format in all cases: cell-based
[1] = system: Chlorella KAS603; details: for % viability after storage & rejuvenation / Cell recovery after storage, relative to control: 0M control = 100%; for Cell number after 21 weeks in storage & rejuvenation: 3 weeks rejuvenation; for Growth after storage & rejuvenation: 21 weeks + 3 weeks rejuvenation
Experimental: (§1) Cells in 40 ml flask cultures are grown to mid-log phase with a density of between 3×10^6 and 3×10^7 cells/ml, and are centrifuged. Culture medium is removed after centrifugation, resulting in more concentrated algae cells. Cells are then re-suspended in ideal glass solution consisting of fresh culture medium and trehalose at a concentration of 0.1M, 0.3M, and 0.5M (dihydrate trehalose 100 from Hayashibara Co. Ltd, Okayama, Japan), respectively, and left overnight with mild agitation. Cells are centrifuged again to remove the ideal glass solution the next day, and are re-suspended in fresh or salt water without any nutrient. The cell density of the resulting suspension is determined prior to storage under the various treatments. (Some cells were also treated with a 0.5M sorbitol solution). In one specific embodiment, 2% (w/v) alginate solution (Sigma-Aldrich A-2033) and 3% CaCl2 solution (Sigma-Aldrich C1016) are prepared in salt water or fresh water medium as required by specific algae species, and autoclave sterilized. Then, 2.0 ml 2% alginate solution is pipetted into each well of a BD Falcon 12-well plate. 0.2 ml algae cell suspension is then pipetted into each well and the mixture is further stirred. The alginate-cell mixture is further sprayed with 3% CaCl2 solution in a sterile pump bottle, allowing the alginate to solidify. After solidification, plates are closed and placed under low light and at ambient temperature. After stored under the above preservation conditions for 5 months, algae cells can be rejuvenated by overlaying alginate/algae mixture with 3.0 ml sterile 5.0% NaPolyphosphate (Sigma Aldrich 305553) and allowing to the mixture sit overnight. The algae/alginate/NaPolyphosphate mixture is then removed from the 12-well plate, diluted with fresh medium (3 parts fresh medium to 1 part cell suspension) and placed under light. In one specific embodiment, cells are treated with trehalose solution at various concentrations and left overnight. Cells are centrifuged the next day to remove the trehalose solution, and then re-suspended in sterile 0.5M D-sorbitol (Fisher Scientific […]) dissolved in salt or fresh-water medium as required by specific algae species. Cells are left to stand for 2 hours with mild agitation. After 2 hours, cells are centrifuged again to remove the 0.5M sorbitol solution and re-suspended in fresh or salt-water medium. Cells are counted after the re-suspension. Cell viability is determined by comparing the cell growth in control set with the experimental set. Specifically, cell counts are performed on all samples. The averaged density value (in cells per ml) for all the cultures after treatment is defined as “rejuvenation cell count.” In some samples, the percent recovery of cells immediately after storage is also determined. The formulae are illustrated as follows: Growth=(rejuvenation cell count)/(initial cell count) Cell recovery after storage=(cell density after storage)/(initial cell density), with controls set at 100% cell recovery. Viability after storage and rejuvenation in nutrient medium=(Growth of treatment)/(Growth of control)×100%, with controls set at 100% viability

[2] = system: Tetraselmis KAS633; details: for % viability after storage & rejuvenation / Cell recovery after storage, relative to control: 0M control = 100%; for Cell number after 21 weeks in storage & rejuvenation: 3 weeks rejuvenation; for Growth after storage & rejuvenation: 21 weeks + 3 weeks rejuvenation; for Cell recovery after storage, relative to control: 21 weeks
Experimental: as §1

[3] = system: Synechocystis KAS635; details: for % viability after storage & rejuvenation / Cell recovery after storage, relative to control: 0M control = 100%; for Cell number after 21 weeks in storage & rejuvenation: 3 weeks rejuvenation; for Cell recovery after storage / Cell recovery after storage, relative to control: 21 weeks; for Growth after storage & rejuvenation: 21 weeks + 3 weeks rejuvenation
Experimental: as §1

[4] = system: Chlorella KAS503; details: for % viability after storage & rejuvenation / Cell recovery after storage, relative to control: 0M control = 100%; for Cell number after 21 weeks in storage & rejuvenation: 3 weeks rejuvenation; for Growth after storage & rejuvenation: 21 weeks + 3 weeks rejuvenation; for Cell recovery after storage, relative to control: 21 weeks
Experimental: as §1

[5] = 0.1M trehalose in F/2, 0.5M sorbitol pretreatment
[6] = 0.1M trehalose in F/2, 0.5M sorbitol pretreatment, 21 weeks
[7] = 0.3M trehalose in F/2, 0.5M sorbitol pretreatment
[8] = 0.5M trehalose in F/2, 0.5M sorbitol pretreatment
[9] = 0.1M trehalose in BG11, 0.5M sorbitol pretreatment
[10] = 0.3M trehalose in BG11, 0.5M sorbitol pretreatment
[11] = 0.5M trehalose in BG11, 0.5M sorbitol pretreatment

OC[C@H]1O[C@H](O[C@H]2O[C@H](CO)[C@@H](O)[C@H](O)[C@H]2O)[C@H](O)[C@@H](O)[C@@H]1O [trehalose, α-D-glycosyl-α-D-glycosylpyranoside]
Cell number after 21 weeks in storage [1, 5]: 1.920 × 10^7
% viability after storage & rejuvenation [1, 5]: (105)%
Cell number after 21 weeks in storage & rejuvenation [1, 5]: 3.102 × 10^7 cells/ml
Cell recovery after storage [1, 6]: 1.76
Growth after storage & rejuvenation [1, 5]: 1.62
Cell recovery after storage, relative to control [1, 6]: (61%)
Cell number after 21 weeks in storage [1, 7]: 2.378 × 10^7
% viability after storage & rejuvenation [1, 7]: (139)%
Cell number after 21 weeks in storage & rejuvenation [1, 7]: 5.099 × 10^7 cells/ml
Growth after storage & rejuvenation [1, 7]: 2.14
Cell recovery after storage, relative to control ([1]; 0.3M trehalose in F/2, 0.5M sorbitol pretreatment, 21 weeks): (123%)
Cell number after 21 weeks in storage [1, 8]: 2.113 × 10^7
% viability after storage & rejuvenation [1, 8]: (160%)
Cell number after 21 weeks in storage & rejuvenation [1, 8]: 5.197 × 10^7 cells/ml
Growth after storage & rejuvenation [1, 8]: 2.46
Cell recovery after storage, relative to control ([1]; 0.5M trehalose in F/2, 0.5M sorbitol pretreatment, 21 weeks): (155%)
Cell number after 21 weeks in storage [2, 5]: 2.831 × 10^6
% viability after storage & rejuvenation [2, 5]: (104%)
Cell number after 21 weeks in storage & rejuvenation [2, 5]: 1.163 × 10^7 cells/ml
Growth after storage & rejuvenation [2, 5]: 4.1
Cell recovery after storage, relative to control [2, 5]: (78%)
Cell number after 21 weeks in storage [2, 7]: 2.276 × 10^6
% viability after storage & rejuvenation [2, 7]: (158%)
Cell number after 21 weeks in storage & rejuvenation [2, 7]: 1.420 × 10^7 cells/ml
Growth after storage & rejuvenation [2, 7]: 6.23
Cell recovery after storage, relative to control [2, 7]: (80%)
Cell number after 21 weeks in storage [2, 8]: 1.899 × 10^6
% viability after storage & rejuvenation [2, 8]: 186%
Cell number after 21 weeks in storage & rejuvenation [2, 8]: 1.399 × 10^7 cells/ml
Growth after storage & rejuvenation [2, 8]: 7.34
Cell recovery after storage, relative to control [2, 8]: (58%)
Cell number after 21 weeks in storage [3, 9]: 1.275 × 10^7
% viability after storage & rejuvenation [3, 9]: (87%)
Cell number after 21 weeks in storage & rejuvenation [3, 9]: 2.436 × 10^7 cells/ml
Cell recovery after storage [3, 9]: 0.39
Growth after storage & rejuvenation [3, 9]: 1.91
Cell recovery after storage, relative to control [3, 9]: (106%)
Cell number after 21 weeks in storage [3, 10]: 1.421 × 10^7
% viability after storage & rejuvenation [3, 10]: (144%)
Cell number after 21 weeks in storage & rejuvenation [3, 10]: 4.495 × 10^7 cells/ml
Cell recovery after storage [3, 10]: 0.42
Growth after storage & rejuvenation [3, 10]: 3.16
Cell recovery after storage, relative to control [3, 10]: (114%)
Cell number after 21 weeks in storage [3, 11]: 2.023 × 10^7
% viability after storage & rejuvenation [3, 11]: (80%)
Cell number after 21 weeks in storage & rejuvenation [3, 11]: 3.560 × 10^7 cells/ml
Cell recovery after storage [3, 11]: 0.72
Growth after storage & rejuvenation [3, 11]: 1.76
Cell recovery after storage, relative to control [3, 11]: (195%)
Cell number after 21 weeks in storage [4, 5]: 1.163 × 10^7
% viability after storage & rejuvenation [4, 5]: (51%)
Cell number after 21 weeks in storage & rejuvenation [4, 5]: 1.03 × 10^7 cells/ml
Growth after storage & rejuvenation [4, 5]: 0.89
Cell recovery after storage, relative to control [4, 5]: (227%)
Cell number after 21 weeks in storage [4, 7]: 8.097 × 10^6
% viability after storage & rejuvenation [4, 7]: (148%)
Cell number after 21 weeks in storage & rejuvenation [4, 7]: 2.080 × 10^7 cells/ml
Growth after storage & rejuvenation [4, 7]: 2.57
Cell recovery after storage, relative to control [4, 7]: (226%)
Cell number after 21 weeks in storage [4, 8]: 8.589 × 10^6
% viability after storage & rejuvenation [4, 8]: (132%)
Cell number after 21 weeks in storage & rejuvenation [4, 8]: 1.959 × 10^7 cells/ml
Growth after storage & rejuvenation [4, 8]: 2.28
Cell recovery after storage, relative to control [4, 8]: (231%)
